# US20250171463A1 (BIOGEN MA INC., priority 2022, published 2025)
# pIC50: −log10 of the molar value.
# Target: T1, EBP (Homo sapiens, UniProt Q15125)
# T1 construct: HEK293T cells were utilized as the source of EBP enzyme; endogenous in cells; host or cells: HEK293T
# Assay: EBP Functional Assay (EBP immunoaffinity LC-MS assay)
# Assay type: biochemical
# Conditions: EBP enzyme from HEK293T cells; 30 min with inhibitor, then zymosterol-d5, 37° C., 4 h; percent conversion to dehydrolathosterol-d5 by LC-APCI MRM MS
# Summary of the method: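 IC50 comes from a 4-parameter logistic fit of zymosterol-d5-to-product percent conversion, measured by LC-APCI MRM MS after sterol extraction. Compounds were preincubated 30 min with EBP from HEK293T cells before deuterated substrate was added for 4 h at 37° C; Tasin-1 served as reference.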
# T1 sequence (Q15125 whole entry): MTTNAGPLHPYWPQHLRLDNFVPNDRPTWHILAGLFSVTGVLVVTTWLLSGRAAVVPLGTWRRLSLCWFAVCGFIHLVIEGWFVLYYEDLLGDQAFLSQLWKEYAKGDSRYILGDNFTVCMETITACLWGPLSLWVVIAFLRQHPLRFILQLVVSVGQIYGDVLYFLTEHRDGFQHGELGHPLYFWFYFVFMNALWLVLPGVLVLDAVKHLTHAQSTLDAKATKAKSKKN
row,pIC50,SMILES
1,6.60 to 7.00,"CCc1nc(C(F)F)ccc1S(=O)(=O)N1CC2(CN(C3CC4(COC4)C3)C2)C1 [Example 206, 2-((6-(difluoromethyl)-2-ethylpyridin-3-yl)sulfonyl)-6-(2-oxaspiro[3.3]heptan-6-yl)-2,6-diazaspiro[3.3]heptane]"
2,5.40 to 6.60,"CCc1nc(C(F)F)ccc1S(=O)(=O)N1CC2(C1)CN([C@H]1CC[C@](C)(O)CC1)C2 [Example 207, (1r,4r)-4-(6-((6-(difluoromethyl)-2-ethylpyridin-3-yl)sulfonyl)-2,6-diazaspiro[3.3]heptan-2-yl)-1-methylcyclohexan-1-ol]"
3,6.60 to 7.00,"CCc1nc(C(F)F)ccc1S(=O)(=O)N1CC2(CN(C3CCC(C)(O)CC3)C2)C1 (stereo not drawn) [Example 208, (1s,4s)-4-(6-((6-(difluoromethyl)-2-ethylpyridin-3-yl)sulfonyl)-2,6-diazaspiro[3.3]heptan-2-yl)-1-methylcyclohexan-1-ol]"
4,6.60 to 7.00,"O=S(=O)(c1ccc(C(F)(F)F)nc1C1CC1)N1CC2(CN(CC3COC3)C2)C1 [Example 209, 2-((2-cyclopropyl-6-(trifluoromethyl)pyridin-3-yl)sulfonyl)-6-(oxetan-3-ylmethyl)-2,6-diazaspiro[3.3]heptane]"
5,6.60 to 7.00,"Cn1nc(C(C)(F)F)cc1S(=O)(=O)N1CC2(CN(CC3CCOCC3)C2)C1 [Example 210, 2-((3-(1,1-difluoroethyl)-1-methyl-1H-pyrazol-5-yl)sulfonyl)-6-((tetrahydro-2H-pyran-4-yl)methyl)-2,6-diazaspiro[3.3]heptane]"
6,6.60 to 7.00,"O=S(=O)(c1ccc(C(F)(F)F)cc1C(F)(F)F)N1CC2(CN(CC3CCOCC3)C2)C1 [Example 211, 2-((2,4-bis(trifluoromethyl)phenyl)sulfonyl)-6-((tetrahydro-2H-pyran-4-yl)methyl)-2,6-diazaspiro[3.3]heptane]"
7,6.60 to 7.00,"O=S(=O)(c1ccc(Cl)nc1C(F)(F)F)N1CC2(CN(C3CCOCC3)C2)C1 [Example 213, 2-((6-chloro-2-(trifluoromethyl)pyridin-3-yl)sulfonyl)-6-(tetrahydro-2H-pyran-4-yl)-2,6-diazaspiro[3.3]heptane]"
8,5.40 to 6.60,"O=S(=O)(c1ccc(OC(F)(F)F)cc1F)N1CC2(CN(C3CCOCC3)C2)C1 [Example 214, 2-((2-fluoro-4-(trifluoromethoxy)phenyl)sulfonyl)-6-(tetrahydro-2H-pyran-4-yl)-2,6-diazaspiro[3.3]heptane]"
9,> 7.00,"Cc1cc(C(F)(F)F)ncc1S(=O)(=O)N1CC2(CN(CC3CCOCC3)C2)C1 [Example 217, 2-((4-methyl-6-(trifluoromethyl)pyridin-3-yl)sulfonyl)-6-((tetrahydro-2H-pyran-4-yl)methyl)-2,6-diazaspiro[3.3]heptane]"
10,6.60 to 7.00,"Cn1nc(C(F)(F)F)cc1S(=O)(=O)N1CC2(CN(CC3COC3)C2)C1 [Example 218, 2-((1-methyl-3-(trifluoromethyl)-1H-pyrazol-5-yl)sulfonyl)-6-(oxetan-3-ylmethyl)-2,6-diazaspiro[3.3]heptane]"
11,6.60 to 7.00,"Cn1nc(C2CC2)cc1S(=O)(=O)N1CC2(CN(CC3CCOCC3)C2)C1 [Example 219, 2-((3-cyclopropyl-1-methyl-1H-pyrazol-5-yl)sulfonyl)-6-((tetrahydro-2H-pyran-4-yl)methyl)-2,6-diazaspiro[3.3]heptane]"
12,5.40 to 6.60,"O=S(=O)(c1ccc(OC(F)(F)F)cc1F)N1CC2(CN(CC3CCOCC3)C2)C1 [Example 220, 2-((2-fluoro-4-(trifluoromethoxy)phenyl)sulfonyl)-6-((tetrahydro-2H-pyran-4-yl)methyl)-2,6-diazaspiro[3.3]heptane]"
13,5.40 to 6.60,"Cc1cc(C(F)(F)F)cnc1S(=O)(=O)N1CC2(CN(C3CCOCC3)C2)C1 [Example 221, 2-((3-methyl-5-(trifluoromethyl)pyridin-2-yl)sulfonyl)-6-(tetrahydro-2H-pyran-4-yl)-2,6-diazaspiro[3.3]heptane]"
14,6.60 to 7.00,"Cc1nc(C(F)(F)F)ccc1S(=O)(=O)N1CC2(CN(C3CCC(C)(O)CC3)C2)C1 (stereo not drawn) [Example 222, 1-methyl-4-(6-((2-methyl-6-(trifluoromethyl)pyridin-3-yl)sulfonyl)-2,6-diazaspiro[3.3]heptan-2-yl)cyclohexan-1-ol]"
15,5.40 to 6.60,"Cc1nc(C(F)(F)F)ccc1S(=O)(=O)N1CC2(CN(C3CCC(C)(O)CC3)C2)C1 (stereo not drawn) [Example 223, 1-methyl-4-(6-((2-methyl-6-(trifluoromethyl)pyridin-3-yl)sulfonyl)-2,6-diazaspiro[3.3]heptan-2-yl)cyclohexan-1-ol]"
16,5.40 to 6.60,"Cc1cc(C(F)(F)F)cnc1S(=O)(=O)N1CC2(CN(CC3CCOCC3)C2)C1 [Example 224, 2-((3-methyl-5-(trifluoromethyl)pyridin-2-yl)sulfonyl)-6-((tetrahydro-2H-pyran-4-yl)methyl)-2,6-diazaspiro[3.3]heptane]"
17,5.40 to 6.60,"O=S(=O)(c1c(F)cc(OC(F)F)cc1F)N1CC2(CN(CC3CCOCC3)C2)C1 [Example 225, 2-((4-(difluoromethoxy)-2,6-difluorophenyl)sulfonyl)-6-((tetrahydro-2H-pyran-4-yl)methyl)-2,6-diazaspiro[3.3]heptane]"
18,5.40 to 6.60,"O=S(=O)(c1ccc(OC(F)F)cc1F)N1CC2(CN(CC3CCOCC3)C2)C1 [Example 226, 2-((4-(difluoromethoxy)-2-fluorophenyl)sulfonyl)-6-((tetrahydro-2H-pyran-4-yl)methyl)-2,6-diazaspiro[3.3]heptane]"
19,6.60 to 7.00,"O=S(=O)(c1ccc(OC(F)F)cc1F)N1CC2(CN(C3CCOCC3)C2)C1 [Example 227, 2-((4-(difluoromethoxy)-2-fluorophenyl)sulfonyl)-6-(tetrahydro-2H-pyran-4-yl)-2,6-diazaspiro[3.3]heptane]"
20,5.40 to 6.60,"N#Cc1cc(C(F)(F)F)ccc1S(=O)(=O)N1CC2(CN(CC3CCOCC3)C2)C1 [Example 228, 2-((6-((tetrahydro-2H-pyran-4-yl)methyl)-2,6-diazaspiro[3.3]heptan-2-yl)sulfonyl)-5-(trifluoromethyl)benzonitrile]"
21,5.40 to 6.60,"O=S(=O)(c1ccc(C(F)(F)F)nc1)N1CC2(CN(CC3CCOCC3)C2)C1 [Example 229, 2-((tetrahydro-2H-pyran-4-yl)methyl)-6-((6-(trifluoromethyl)pyridin-3-yl)sulfonyl)-2,6-diazaspiro[3.3]heptane]"
